# Measurements from US9642829B2, “Antifungal compound and uses thereof” (The University of Hong Kong, priority 2012, dated 2017).
# Experiments:
# C. tropicalis = experiment: Antifungal susceptibility (MIC/MFC), CLSI criteria; assay type: cell-based, Candida tropicalis; conditions: C. tropicalis ATCC; 0.5 McFarland inoculum (10^6 cells/ml)
# Protocol: Antifungal activity of the small molecules was evaluated using USA standards, Clinical and Laboratory Standards Institute (CLSI) criteria. In brief, inocula from 24 h Candida cultures on Sabourauds's dextore agar were standardized to a turbidity equivalent of 0.5 McFarland standards at 520 nm with a spectrophotometer. The suspensions were further diluted in Rosewell Park Memorial Institute (RPMI) 1640 medium (Life technologies, New York, USA) to yield an inoculum concentration of approximately 0.5 1×10^3 to 2.5 1×10^3 cells/ml. Minimum inhibitory concentration (MIC) and minimum fungicidal concentration (MFC) assay was performed in 96-well plates (Iwaki, Tokyo, Japan) and each of the Candida species was exposed to a double dilution of SM21. Amphotericin B was used as a positive control. All the experiments were preformed three occasions with duplicates for all isolates. The plates were incubated at 35° C. for 48 h to evaluate MIC. In the case of Cryotococcus neoformans, reading were taken after 72 h. Aforementioned assay was performed for C. albicans ATCC 90028, C. albicans SC5314 and 10 C. albicans clinical isolates. Moreover, MIC/MFC determination was carried out for other fungal species such as C. glabrata, C. krusei, C. tropicalis, C. parapsilosis, C. neoformans, Aspergillus fumigates and Penicillium marneffei. […]
# Aspergillus fumigatus = experiment: Antifungal susceptibility (MIC/MFC), CLSI criteria; assay type: cell-based; conditions: 0.5 McFarland inoculum (10^6 cells/ml)
# Protocol: (§1) Antifungal activity of the small molecules was evaluated using USA standards, Clinical and Laboratory Standards Institute (CLSI) criteria. In brief, inocula from 24 h Candida cultures on Sabourauds's dextore agar were standardized to a turbidity equivalent of 0.5 McFarland standards at 520 nm with a spectrophotometer. The suspensions were further diluted in Rosewell Park Memorial Institute (RPMI) 1640 medium (Life technologies, New York, USA) to yield an inoculum concentration of approximately 0.5 1×10^3 to 2.5 1×10^3 cells/ml. Minimum inhibitory concentration (MIC) and minimum fungicidal concentration (MFC) assay was performed in 96-well plates (Iwaki, Tokyo, Japan) and each of the Candida species was exposed to a double dilution of SM21. Amphotericin B was used as a positive control. All the experiments were preformed three occasions with duplicates for all isolates. The plates were incubated at 35° C. for 48 h to evaluate MIC. In the case of Cryotococcus neoformans, reading were taken after 72 h. Aforementioned assay was performed for C. albicans ATCC 90028, C. albicans SC5314 and 10 C. albicans clinical isolates. Moreover, MIC/MFC determination was carried out for other fungal species such as C. glabrata, C. krusei, C. tropicalis, C. parapsilosis, C. neoformans, Aspergillus fumigates and Penicillium marneffei. […] Next using dose-dependent assay we tested that MIC/MFC of SM21 from 10^3 cells/ml to 10^7 cells/ml of C. albicans (Table 2). Each of the foregoing experiment was repeated on three different occasions.
# Penicillium marneffei = experiment: Antifungal susceptibility (MIC/MFC), CLSI criteria; assay type: cell-based; conditions: 0.5 McFarland inoculum (10^6 cells/ml)
# Protocol: as §1
# C. albicans = experiment: Dose-dependent assay of MIC/MFC at different cell densities; assay type: cell-based, Candida albicans; design: unit not given here
# Protocol: as §1
# C. albicans biofilms = experiment: Mono species Candida biofilm MIC, XTT assay; assay type: cell-based, Candida albicans
# Protocol: For instance, we have previously shown the resistance of Candida biofilms against amphotericin and caspofungin. Therefore, next using standard biofilm assays we have established in our laboratory, we examined the effect of SM21 against Candida biofilms. In brief, Candida cells were grown in SDA medium at 37° C. for 18 h. Then a loopful of the yeast was inoculated into the yeast nitrogen base (YNB; Difco) medium supplemented with 50 mM glucose in a rotary shaker at 75 rpm. After overnight broth culture, the yeasts were harvested in the late exponential growth phase and washed twice with 20 ml of phosphate buffer saline (PBS; pH 7.2. 0.1 M) prior to use in the biofilm studies. Candida biofilms were developed according to a previously published protocol. In brief, washed yeast cells were resuspended in YNB supplemented with 100 mM glucose and adjusted to an optical density of 0.38 at 520 nm (1×10^7 cells/ml). The standard cell suspension was used immediately to develop biofilms on commercially available presterilized, polystyrene, 96-well plate (IWAKI, Tokyo, Japan). At first, 100 μl of standardized cell suspension (1×10^7 cells/ml) was pipetted into each well of a microtiter plate and incubated for 1.5 h at 37° C. in a shaker at 75 rpm to permit yeast adherence to the well surface (adherence phase). For controls, a well of each microtiter plate was handled in an identical fashion except that no Candida suspension was added. Following the adhesion phase, the cell suspensions were aspirated, and each well washed with 100 μl of PBS to remove loosely adherent cells. 200 μl of YNB with 100 mM glucose were then pipetted into each of the washed wells and the plates incubated at 37° C. in a shaker at 75 rpm for 24 or 48 h. After biofilm growth phase microscopic examination of the cultures were performed to rule out contamination. Then, the suspending medium was aspirated and biofilms were washed with 100 μl PBS to remove the nonadherent cells. The stock solutions were diluted twofold with RPMI 1640 supplemented with 2% glucose to obtain SM21 concentration from 100 to 0.2 μg/ml drug concentrations. In parallel, other antifungal agents such as caspofungin (100 to 0.1 μg/ml) and amphotericin B (240 μg/ml to 0.225 μg/ml) was also prepared as describe above. A total of 100 μl of drug solution was added to the microtiter plate containing Candida biofilms. Biofilms were then incubated at 37° C. for 24 h with the antifungals and afterwards metabolic activity of fungal cells was determined by the XTT [2,3-bis(2-methoxy-4-nitro-5-sulfophenyl)-2H-tetrazolium-5-carboxanilide sodium salt] assay (17, 28). Candida biofilm MIC90 was defined as the lowest drug concentration with 90% reduction in opacity compared with the drug free control. Each experiment was repeated three times with four replicates.
# [1] = system: Candida albicans invasion of human oral keratinocytes; experiment: Candida-human oral keratinocytes co-culture model; assay type: cell-based; conditions: 1×10^4 cells/ml C. albicans with human oral keratinocytes, 24-h incubation
# Protocol: We also examined the ability of SM21 to inhibit invasion of Candida albicans in Candida-human oral keratinocytes co-culture model. Primary human oral keratinocytes (ScienCell Research Laboratories™, Carlsbad, Calif., USA) at passage two were cultured using Defined Keratinocyte-Serum Free Medium (Gibco, Grand Island, N.Y., USA) which contained 0.2% Defined Keratinocyte-SFM Growth Supplement (Gibco) and 1% penicillin/streptomycin solution. Cells were incubated at 37° C. in a humidified atmosphere with 5% CO2 and 95% air. Yeast cells for inoculation were cultured for 24 h at 37° C. on Sabouraud dextrose agar (Difco, Hampshire, England). A sample of the culture was washed thrice in PBS and an inoculum of approximately 2×10^5 cells was suspended in 10 ml of YPG medium (1% yeast extract, 2% peptone and 2% glucose; Difco, Detroit, Mich.). The suspension was cultured for 18 h at 37° C. with orbital shaking and the cells were harvested, washed in 0.9% NaCl and a sample of cells was resuspended in fresh medium in a shaker for 24 h at 37° C. Afterwards the cells were harvested by centrifuge and the inocula were prepared in phosphate buffered saline (PBS, pH 7.2). Human oral keratinocytes were grown to 80-90% confluence in u-Slide 8-well plates (ibidi GmbH Integrated BioDiagnostics, Martinsried, Germany). […]
structure (smiles),measurement,setting,value
CN(C)c1ccc(/C=C/c2cc(C(C)(C)C)[o+]c(C(C)(C)C)c2)cc1.[O-][Cl+3]([O-])([O-])[O-] [SM21],Susceptibility (MIC90),C. tropicalis,0.8 µg/mL
same,Susceptibility (MIC90),Aspergillus fumigatus,6.25 µg/mL
same,Susceptibility (MIC90),Penicillium marneffei,0.2 µg/mL
same,MIC/MFC,C. albicans; C. albicans 10^4 cells/ml,0.1
same,MIC/MFC,C. albicans; C. albicans 10^5 cells/ml,0.1
same,MIC/MFC,C. albicans; C. albicans 10^6 cells/ml,0.2
same,MIC/MFC,C. albicans; C. albicans 10^7 cells/ml,0.6
same,Biofilm MIC90,"C. albicans biofilms; 24 h C. albicans biofilms, 24 h drug exposure, XTT",3.2 µg/mL
same,Minimum inhibitory concentration of 48 h Candida biofilms,C. albicans biofilms; 48 h C. albicans biofilms,25 µg/mL
same,"Protection of keratinocytes from C. albicans invasion (LIVE/DEAD, confocal)",[1],able to prevent the epithelial cell damage
